US6432405B1, “Method of inhibiting HIV infection with CD44 and anti-CD44 antibodies” (Duke University, priority 1991, dated 2002)
“Also recorded” adds a separate entry of the source.

Columns and labels:
HIV-1Ba.L = assay: HIV-1 infection of human monocytes in vitro (cytopathology/polykaryon formation, supernatant reverse transcriptase); assay type: cell-based; conditions: for effect on HIV-1-induced cytopathology and supernatant RT (in words): human monocytes inoculated with HIV-1Ba.L, three weeks of culture
Source text: This aspect of the present invention provides a new method, based on a separate molecular pathway, of blocking HIV infection. The invention is based, at least in part, on Applicants' observation that CD44 (the hyaluronate receptor) facilitates HIV infection/expression in human cells. When this molecule is “blocked”by binding to the anti-CD44 antibody […] or AlG3, there is a 40-80% reduction of HIV infection/expression in normal human monocytes in vitro, as determined by inhibition of monocyte polykaryon formation and expression of viral reverse transcriptase in supernatant medium. […] To determine the importance of other monocyte cellular surface molecules in in vitro infection with HIV-1, the abilities of various murine monoclonal antibodies directed toward different monocyte membrane antigens to influence HIV-1 infection of human monocytes in vitro were determined. Monocytes from normal people were isolated by density gradients, adherence, and washing. Cells were inoculated with HIV-1Ba.L. […] three weeks of culture for reverse transcriptase (RT) activity, and the plates were examined morphologically. Antibodies AlG3 and […]

PBMC (T cells) = assay: T cell activation assay: CD2 mAb-stimulated PBMC proliferation; assay type: cell-based, human; conditions: compared to the results with CD44 liposomes; data not shown
Method: CD44 (A3D8) and control YgGl (P3X63/Ag8) antibodies were conjugated to CNBr-activated SEPHAROSE CL 4B (Pharmacia, Piscataway, N.J.) (3.0 mg IgG/ml gel). HuT 78 T Cell (CD44+) lysate was solubilized from 5×10^9 cells in 50 ml buffer (300 mM NaCl, 10 mM Na2HPO4 pH 7.4, 0.2% NaN3w/v 0.5% NP-40 v/v), 0.01% Tween 80 w/v, 0.2 mM phenylmethylsulfonyl fluoride, and 0.1 mM tosyl L-lysine chloromethyl ketone) (0° C.×30 min), centrifuged (4° C. 3000×g×15 min, 23420 ×g×30 min) filtered, precleared×2 over a P3-SEPHAROSE column, and allowed to bind overnight (4° C.) to A3D8-SEPHAROSE. The column was washed with 5 column volumes equilibration buffer, followed by 5 column volumes of 50 mM Tris, pH 7.4, 0.5% NP-40. NP-40 was exchanged for octyl glucoside (OG) (Sigma, St. Louis, Mo.) by washing with 2 column volumes 50 mM Tris pH 7.4, 1.5% OG w/v. […]
Liposomes were prepared by the method of Mimms et al ((1981) Biochemistry 20:833-840), using 1 μM purified CD44 or control glycophorin protein, 1 nM L-α-dioleoyl lecthin (Avanti Polar Lipids, Birmingham, Ala.), and 240 nM OG. Liposomes were analyzed for content of the appropriate protein using a novel labelling technique and flow cytometry. […] Fluoresceinated liposome-bead conjugates were then analyzed by flow cytometry. […]

Substance	effect on HIV-1-induced cytopathology and supernatant RT (in words) (HIV-1Ba.L)	reduction/inhibition of HIV infection/expression (HIV-1Ba.L; normal human monocytes in vitro, by inhibition of monocyte polykaryon formation and viral reverse transcriptase in supernatant medium)	effect on CD2 stimulated PBMC cultures (in words) (PBMC (T cells))
Chondroitin sulfate	no effect; also recorded: no or minimal inhibitory activity		
hyaluronic acid [hyaluronate]	diminished morphological changes and RT expression	up to 85%	
soluble, free CD44 protein: CD44 protein affinity-purified from HuT 78 T cell lysate on A3D8-Sepharose, 80-85 kD			Identical results
